Measured values taken from BindingDB's records for doi:10.1016/S0960-894X(97)00319-3 (1997).

assay: Inhibition of [125I]ET1 binding to porcine kidney inner medulla membranes

Compound	IC50 [µM]
COc1ccccc1Cn1c(=O)c(C(=O)O)c(-c2ccc3c(c2)OCO3)c2ccccc21 [4-Benzo[1,3]dioxol-5-yl-1-(2-methoxy-benzyl)-2-oxo-1,2-dihydro-quinoline-3-carboxylic acid]	0.94
CCOc1ccc2c(c1)c(-c1ccc3c(c1)OCO3)c(C(=O)O)c(=O)n2Cc1ccccc1OC [4-Benzo[1,3]dioxol-5-yl-6-ethoxy-1-(2-methoxy-benzyl)-2-oxo-1,2-dihydro-quinoline-3-carboxylic acid]	0.45
COc1ccc(Cn2c(=O)c(C(=O)O)c(-c3ccc4c(c3)OCO4)c3ccccc32)cc1 [4-Benzo[1,3]dioxol-5-yl-1-(4-methoxy-benzyl)-2-oxo-1,2-dihydro-quinoline-3-carboxylic acid]	6.8
COc1ccccc1Cn1c(=O)c(C(=O)O)c(-c2ccc3c(c2)OCO3)c2c(OC)c(OC)ccc21 [4-Benzo[1,3]dioxol-5-yl-5,6-dimethoxy-1-(2-methoxy-benzyl)-2-oxo-1,2-dihydro-quinoline-3-carboxylic acid]	2.6
O=C(O)c1c(-c2ccc3c(c2)OCO3)c2ccccc2n(Cc2ccccc2)c1=O [4-Benzo[1,3]dioxol-5-yl-1-benzyl-2-oxo-1,2-dihydro-quinoline-3-carboxylic acid]	> 10
CCOc1ccc2c(c1)c(-c1ccc(OC)cc1OC)c(C(=O)O)c(=O)n2Cc1ccccc1OC [4-(2,4-Dimethoxy-phenyl)-6-ethoxy-1-(2-methoxy-benzyl)-2-oxo-1,2-dihydro-quinoline-3-carboxylic acid]	0.54
CCOc1ccc2c(c1)c(-c1ccc(OC)cc1)c(C(=O)O)c(=O)n2Cc1ccccc1OC [6-Ethoxy-1-(2-methoxy-benzyl)-4-(4-methoxy-phenyl)-2-oxo-1,2-dihydro-quinoline-3-carboxylic acid]	0.5
CCOc1ccc2c(c1)c(-c1ccc(OC)cc1)c(C(=O)O)c(=O)n2Cc1cc(OC)ccc1OC [1-(2,5-Dimethoxy-benzyl)-6-ethoxy-4-(4-methoxy-phenyl)-2-oxo-1,2-dihydro-quinoline-3-carboxylic acid]	0.2
CCc1ccc2c(c1)c(-c1ccc3c(c1)OCO3)c(C(=O)O)c(=O)n2Cc1ccccc1OC [4-Benzo[1,3]dioxol-5-yl-6-ethyl-1-(2-methoxy-benzyl)-2-oxo-1,2-dihydro-quinoline-3-carboxylic acid]	1.3
